Experimental data as given in patent US6358973B1, “Benzazine derivatives as phosphodiesterase 4 inhibitors” (Zambon Group S.p.A., priority 1998, dated 2002).

Tests used:
PDE 4 enzyme = PDE 4 enzyme inhibition (SPA, Amersham kit); assay type: biochemical; conditions: PDE 4 purified from human PMNs; cAMP 1 μM; 40 minutes at 30° C.; 9 concentrations
From the text: Evaluation of the PDE 4 Enzyme Inhibition a) Purification of Human Polymorphonucleate Leukocytes
The polymorphonucleate leukocytes (PMNs) were isolated from peripheral blood of healthy volunteers according to what described by Boyum A., Scand. J. Immunol., 1976, 5th suppl., 9). Shortly, the isolation of the PMNs was effected by Ficoll-Paque gradient centrifugation followed by sedimentation on dextrane and the erythrocyte contamination was eliminated by hypotonic lysis. […]
b) PDE 4 Enzyme Purification
The human PMNs were re-suspended in TRIS/HCl buffer (10 mM pH 7.8) containing MgCl2 (5 mM), EGTA (4 mM), mercaptoethanol (5 mM), TRITON-X100 (1%), pepstatin A (1 μM), PMSF (100 μM) and leupeptin (1 μM), and homogenised by Polytron. […]
The enzyme activity was evaluated with an Amersham kit based on the SPA (Scintillation Proximity Assay) technique. […] The radioactivity due to the particles was measured in a β-emitting counter. The results are expressed as percent activity versus the control present in each experiment. The IC50 values were calculated over 9 concentrations equidistant in logarithmic scale using a 4-parameters logistic function by software.

| Compound | melting point | IC50 (PDE 4 enzyme) |
| --- | --- | --- |
| COc1ccc2c(c1)C(CCCCCCc1ccccc1)CN=C2Cc1c(Cl)cncc1Cl.Cl.Cl (stereo not drawn) | 135 to 137 °C (dec.) |  |
| COc1cccc2c1C(Cc1c(Cl)cncc1Cl)=NCC2CCCCCCc1ccccc1.Cl.Cl (stereo not drawn) | 117 to 119 °C (dec.) |  |
| COc1cccc2c1C(Cc1c(Cl)cncc1Cl)=NCC2CC1CCCC1.Cl.Cl (stereo not drawn) | 189 to 190 °C (dec.) |  |
| COc1ccc2c(c1CC1CCCC1)CCN=C2Cc1c(Cl)cncc1Cl [Compound 20, 5-Cyclopentylmethyl-1-(3,5-dichloro-pyridin-4-ylmethyl)-6-methoxy-3,4-dihydro-isoquinoline] |  | 35.9 ± 4.7 nM |

Other lines, results leading:

| melting point | IC50 (PDE 4 enzyme) | Compound |
| --- | --- | --- |
| 191 to 192 °C |  | COc1ccc2c(c1)c(-c1ccccc1)cc(=O)n2Cc1c(Cl)cncc1Cl [Compound 23, 1-(3,5-Dichloropyridin-4-ylmethyl)-6-methoxy-4-phenyl-1H-quinolin-2-one] |
| 162 to 164 °C (dec.) |  | COc1ccc2c(c1)C(CC1CCCC1)CN=C2Cc1c(Cl)cncc1Cl.Cl.Cl (stereo not drawn) |
